In publication PMC12586182 (Frontiers in Oncology, 2025):

Tests used:
Test in all cases: Cell viability assay (ATPlite)
Format in all cases: cell-based
NCC-IT = details: Homo sapiens, NCCIT; NCC-IT cell line, 72 hours incubation
Procedure: (§1) Intracellular ATP content was used as an indirect readout of cell number using the ATPlite 1Step bioluminescence assay (Revvity, Groningen, the Netherlands). Cells were seeded in 384-well plates at an optimized density to ensure unrestricted growth and maximal signal at the end of the experiment. After 24 hours of incubation, the starting cell number was determined by adding ATPlite to each well of a control plate and recording luminescence on an Envision multimode reader (Revvity, Waltham, MA, USA) ([4]). Compounds were diluted in DMSO in √10-fold steps from 10 mmol/L stocks to obtain 9-point dilution series. After further 31.6-fold dilution in 20 mmol/L HEPES (pH 7.4), the dilution series were added in duplicate to the cells in the 384-well plates to determine the effect of the compounds on cell viability. Vehicle-treated controls were included to determine maximal cell proliferation. The final DMSO concentration was 0.4% (v/v) in all wells. After incubation for an additional 72 hours, the ATP content was measured in each well using ATPlite. The luminescent signal in inhibitor-treated wells was normalized to vehicle-treated control wells to determine the percentage viability at each concentration. Cell doublings were determined by relating the cell number of vehicle-treated controls to the starting cell number for each cell line. The viability assay of a cell line was repeated when the cell doubling deviated > 2-fold from the historic doubling as determined by multiple independent experiments. The quality of the complete assay was determined by a parallel test with doxorubicin on two cell lines. IC50 values were calculated by fitting a four-parameter logistic model to the percentage viability values using IDBS XLfit5 (IDBS, Guildford, United Kingdom). All curves were visually inspected and submitted to an F-test as implemented in IDBS XLfit5. Curves with an F-value above 1.5 were invalidated and IC50 values were maximized at the highest concentration.

SK-OV-3 = details: Homo sapiens; SK-OV-3 cell line, 72 hours incubation
Procedure: as §1

MeWo = details: Homo sapiens; MeWo cell line, 72 hours incubation
Procedure: as §1

NOMO-1 = details: Homo sapiens; NOMO-1 cell line, 72 hours incubation
Procedure: as §1

KMS-11 = details: Homo sapiens; KMS-11 cell line, 72 hours incubation
Procedure: as §1

ES-2 = details: Homo sapiens; ES-2 cell line, 72 hours incubation
Procedure: as §1

SHP-77 = details: Homo sapiens, SHP77; SHP-77 cell line, 72 hours incubation
Procedure: as §1

SW626 = details: Homo sapiens; SW626 cell line, 72 hours incubation
Procedure: as §1

HCC1954 = details: Homo sapiens; HCC1954 cell line, 72 hours incubation
Procedure: as §1

LNCaP clone FGC = details: Homo sapiens; LNCaP clone FGC cell line, 72 hours incubation
Procedure: as §1

PA-1 = details: Homo sapiens; PA-1 cell line, 72 hours incubation
Procedure: as §1

SUP-T1 = details: Homo sapiens; SUP-T1 cell line, 72 hours incubation
Procedure: as §1

LS174T = details: Homo sapiens; LS174T cell line, 72 hours incubation
Procedure: as §1

U-87MG ATCC = details: Homo sapiens; U-87MG ATCC cell line, 72 hours incubation
Procedure: as §1

BT-549 = details: Homo sapiens; BT-549 cell line, 72 hours incubation
Procedure: as §1

DB = details: Homo sapiens; DB cell line, 72 hours incubation
Procedure: as §1

TT = details: Homo sapiens; TT cell line, 72 hours incubation
Procedure: as §1

5637 = details: Homo sapiens; 5637 cell line, 72 hours incubation
Procedure: as §1

HEC-6 = details: Homo sapiens; HEC-6 cell line, 72 hours incubation
Procedure: as §1

MKN45 = details: Homo sapiens, MKN-45; MKN45 cell line, 72 hours incubation
Procedure: as §1

Jurkat E6.1 = details: Homo sapiens; Jurkat E6.1 cell line, 72 hours incubation
Procedure: as §1

CCF-STTG1 = details: Homo sapiens; CCF-STTG1 cell line, 72 hours incubation
Procedure: as §1

RPMI-7951 = details: Homo sapiens; RPMI-7951 cell line, 72 hours incubation
Procedure: as §1

NCI-H716 = details: Homo sapiens; NCI-H716 cell line, 72 hours incubation
Procedure: as §1

T98G = details: Homo sapiens; T98G cell line, 72 hours incubation
Procedure: as §1

Hs 766T = details: Homo sapiens, Hs766T; Hs 766T cell line, 72 hours incubation
Procedure: as §1

LC-2/ad = details: Homo sapiens; LC-2/ad cell line, 72 hours incubation
Procedure: as §1

FaDu = details: Homo sapiens; FaDu cell line, 72 hours incubation
Procedure: as §1

CAL-27 = details: Homo sapiens; CAL-27 cell line, 72 hours incubation
Procedure: as §1

SK-N-AS = details: Homo sapiens; SK-N-AS cell line, 72 hours incubation
Procedure: as §1

MOLT-4 = details: Homo sapiens; MOLT-4 cell line, 72 hours incubation
Procedure: as §1

In the case of `O=C(c1ccc(Oc2ccccc2)cc1Cl)c1c[nH]c2ncnc(N[C@@H]3CC[C@@H](CO)OC3)c12` [nemtabrutinib], the IC50 (NCC-IT) is reported as 4.62 µM, the IC50 (SK-OV-3) is reported as 4.95 µM and the IC50 (MeWo) is reported as 10.2 µM. For the same compound, the IC50 (NOMO-1) was 4.78 µM, the IC50 (KMS-11) was 4.65 µM and the IC50 (ES-2) was 0.929 µM. The IC50 (SHP-77) was 14.6 µM, the IC50 (SW626) was 3.13 µM and the IC50 (HCC1954) was 1.32 µM. The IC50 (LNCaP clone FGC) was greater than 31.6 µM, the IC50 (PA-1) was 3.03 µM and the IC50 (SUP-T1) was 12.1 µM. The IC50 (LS174T) was 1.74 µM, the IC50 (U-87MG ATCC) was 12 µM and the IC50 (BT-549) was 8.07 µM. The IC50 (DB) was 17.3 µM, the IC50 (TT) was 5.33 µM and the IC50 5637 was 3.46 µM. It also gave an IC50 (HEC-6) of 22.3 µM, an IC50 (MKN45) of 5.26 µM and an IC50 (Jurkat E6.1) of 0.267 µM. For the same compound, the IC50 (CCF-STTG1) was 16.7 µM, the IC50 (RPMI-7951) was 2.22 µM and the IC50 (NCI-H716) was 1.46 µM. It also gave an IC50 (T98G) of 4.52 µM, an IC50 (Hs 766T) of 1.82 µM and an IC50 (LC-2/ad) of 1.26 µM. The IC50 (FaDu) was 1.3 µM, the IC50 (CAL-27) was 1.29 µM and the IC50 (SK-N-AS) was 2.81 µM. For the same compound, the IC50 (MOLT-4) was 6.87 µM.
